Experimental findings from US20250144250A1, “PH-SENSITIVE FLUOROPHORES” (The General Hospital Corporation, priority 2022, published 2025) are described below.

For the assay, the system named is ID8 cells. The assay is described as follows: Live-cell labeling and in vitro imaging: cellular uptake of NIR fluorophores. In kind it is cell-based, murine. Particulars: fluorescence microscopy. The protocol:
FIG. 2 Cellular uptake of pH sensing NIR fluorophores via membrane transporters: In vitro tumor cell uptake of the pH sensing NIR probes under normoxic and hypoxic conditions. Murine cancer cell line ID8 cells were incubated at normoxic or hypoxic conditions (1% O2) for 24 h at 37° C. and then incubated for 30 min in the presence of 0.1 μM NIR probes. (a) Representative fluorescence images of cells are shown. The contrast was normalized across all images. Scale bar=100 μm. (b) Quantitative time-course measurements of the fluorescence intensity in cells. *P<0.05, **P<0.01 by two-way ANOVA followed by Tukey's multiple comparisons test (Normoxia vs. Hypoxia). Error bars show mean #s.d. (c) Inhibition assay of transporters to determine the entry mechanisms in ID8 cells. […] Representative fluorescence images of cells are shown. […] (d) Quantitative measurements of the fluorescence intensity in cells. *P<0.05 by two-way ANOVA followed by Tukey's multiple comparisons test. […]
Live-cell labeling and in vitro imaging: Murine ovarian cancer cells (ID8 cells) were obtained from Dr. Wang's lab in the Vincent Center for Reproductive Biology at Massachusetts General Hospital (MGH). […] Image acquisition and analysis were performed using IPLab software (Scanalytics, Fairfax, VA), and the fluorescent intensity of each cell was measured using ImageJ (National Institutes of Health, Bethesda, MD). […]

Regarding `CCN1/C(=C/C=C2\CCCC(/C=C/C3=[N+](CC)c4ccccc4C3(C)C)=C2c2ccccc2)C(C)(C)c2ccccc21` [PH03, 1-Ethyl-2-((E)-2-((E)-6-(2-((E)-1-ethyl-3,3-dimethylindolin-2-ylidene)ethylidene)-3,4,5,6-tetrahydro-[1,1′-biphenyl]-2-yl)vinyl)-3,3-dimethyl-3H-indol-1-ium iodide], the accumulation in cells entry was “time-dependent manner”. For the molecule `CCN1/C(=C/C=C2\CCCC(/C=C/C3=[N+](CC)c4ccccc4C3(C)C)=C2N2CCNCC2)C(C)(C)c2ccccc21` [PH08], the accumulation in cells result was “time-dependent manner”.
